Counter-ions that a name gives are not always drawn. Like-named read-outs stand apart in the source and are kept apart here.
What was measured:
[1] = test system: male broilers; assay: Study 1: growth performance and carcass responses of male broilers, compounds in feed vs positive and negative controls; format: in vivo, chicken; details: 14 days; for change in vivo at 15 ppm, 15 µg/mL: Gallus gallus, feed or water, 336 h; for change in vivo at 15 ppm, 15 µg/mL / Ave daily live wt gain % inc. / Breast wt % inc. / Feed intake % inc. / Gain effic % inc. / Leg wt % inc. / Fat Pad wt % dec.: 15 ppm in feed ad libitum; for change in vivo at 15 ppm, 15 µg/mL / Ave daily live wt gain % inc. / Breast wt % inc. / Feed intake % inc. / Gain effic % inc. / Leg wt % inc.: percent change from negative control; for Fat Pad wt % dec.: percent decrease from negative control; for improvement versus negative control and positive control (in words): positive control = Compound 1
Description: An objective of this study is to evaluate growth performance and carcass responses of male broilers by comparing non-zero dosages of the above compounds versus a positive control (Compound 1) and negative controls. Table 1 sets out the specific treatment groups:
(§1) The route of administration is oral, with the compounds mixed in feed, and provided Ad libitum. The age of the chickens of Day 1 of the study is 35 days old. Body weights are taken on the following days: • 1) Study Day 1 (pen weight) • 2) Study Day 14 (individual animal weights) • 3) Study Day 15 (individual weights on selected animals) • 4) Study Day 16 (blocks 1-5) • 5) Study Day 17 (blocks 6-10).
(§2) Following collection of final weights, the following processing data is collected (hot weights) on individual animals: • 1) Live weight • 2) Hot carcass weight • 3) Fat pad weight • 4) Hot breast muscle weight • 5) Hot bone in leg weight

[2] = test system: male broilers; assay: Study 2: growth performance and carcass responses of male broilers, compounds in feed in the last 14 days prior to slaughter; format: in vivo, chicken
Method: Compounds 2, 5, and 9 are used in this study. The study is conducted to evaluate growth performance and carcass responses of male broilers by comparing non-zero dosages of the compounds, versus negative control, administered in the last 14 days prior to slaughter. Table 3 sets out the specific treatment groups.
as §1, with “15” for “14”, “16” for “15”, “animals in animals in blocks 1-4)” for “animals)”, “Day” for “Day 16 (blocks 1-5) • 5) Study Day”, “(individual weights on selected animals in animals in blocks 5-8)” for “(blocks 6-10).”
as §2

[3] = male broilers 35 days old at Day 1, * in cell = not significant vs negative control, read-out: ADG % inc.
[4] = male broilers, * in cell = not significant, read-out: Hot carcass wt % inc.
[5] = male broilers, * in cell = not significant

Row | Compound | change in vivo at 15 ppm, 15 µg/mL [1, 3] | change in vivo at 15 ppm, 15 µg/mL [1, 4] | Ave daily live wt gain % inc. [1, 5] | Breast wt % inc. [1, 5] | Feed intake % inc. [1, 5] | Gain effic % inc. [1, 5] | Leg wt % inc. [1, 5] | Fat Pad wt % dec. [1, 5] | other results
1 | CC(C)(Cc1ccc(Oc2ccc(C(=O)O)cc2)cc1)NC[C@H](O)COc1cccc(O)c1 (stereo in doubt) [Compound 8, 4-[4-(2-{[2-hydroxy-3-(3-hydroxyphenoxy)propyl]amino}-2-methylpropyl)phenoxy]benzoic acid dihydrochloride] | -0.4% | 0.8% | – | – | – | – | – | – | –
2 | CC(C)(Cc1ccc(Oc2ncccc2C#N)cc1)NC[C@H](O)COc1ccccc1-c1cccs1 [Compound 1, 2-[4-(2-{[(2S)-2-hydroxy-3-(2-thiophen-2-ylphenoxy)propyl]amino}-2-methylpropyl)phenoxy]pyridine-3-carbonitrile, reference compound] | 4.4% | 2.4% | 4.0% | 3.5* % | 2.7% | 1.6* % | 1.2* % | 9.8* % | growth performance parameters improved (in words) ([1]; 15 ppm in feed, vs negative control): improved ADG, feed intake, average daily live weight gain only
3 | CC(C)(Cc1ccc(Oc2ccc(C(=O)N3CCOCC3)cn2)cc1)NC[C@H](O)COc1cccc2[nH]ncc12 [Compound 2, (2S)-1-{[1,1-dimethyl-2-(4-{[5-(morpholin-4-ylcarbonyl)pyridin-2-yl]oxy}phenyl)ethyl]amino}-3-(1H-indazol-4-yloxy)propan-2-ol] | 8.7% | 6.1% | 8.3% | 6.1% | 4.8% | 3.8% | 8.2% | 12.8* % | ADFI versus negative control group ([2]; 3.5 ppm in feed): significantly lower; F/G ratio (feed:gain efficiency) versus negative control group ([2]; 7 ppm in feed): significantly lower; G/F ratio (gain:feed efficiency) versus negative control group ([2]; 7 ppm in feed): significantly higher; hot bone-in leg weight versus negative control group ([2]; 7 ppm in feed): significantly higher; hot breast muscle weight versus negative control group ([2]; 7 ppm in feed): significantly higher; hot carcass weight versus negative control group ([2]; 7 ppm in feed): significantly higher; fat pad weight (in words) ([1]; 15 ppm in feed): reduce fat pad weight; feed intake (in words) ([1]; 15 ppm in feed): significant increase in feed intake; gain versus untreated control (in words) ([1]; 15 ppm in feed): significantly greater than untreated control; improvement versus negative control and positive control (in words) ([1]; 15 ppm in feed): significantly better improvement than both the negative control and the positive control
4 | CC(C)(Cc1ccc(Oc2ccc(S(C)(=O)=O)cc2)cc1)NC[C@H](O)COc1cccc2[nH]c(=S)[nH]c12 [Compound 3, 4-({(2S)-3-[(1,1-dimethyl-2-{4-[4-(methylsulfonyl)phenoxy]phenyl}ethyl)amino]-2-hydroxypropyl}oxy)-1,3-dihydro-2H-benzimidazole-2-thione] | 1.6% | 2.7% | – | – | – | – | – | – | –
5 | CC(C)(Cc1ccc(Oc2ncccc2C(N)=O)cc1)NC[C@H](O)COc1ccccc1-c1cc2ccccc2[nH]1 [Compound 4, 2-{4-[2-({(2S)-2-hydroxy-3-[2-(1H-indol-2-yl)phenoxy]propyl}amino)-2-methylpropyl]phenoxy}pyridine-3-carboxamide] | -1.6% | 0.3% | – | – | – | – | – | – | –
6 | CC(C)(Cc1ccc(Oc2ccc(C(=O)N3CCOCC3)cn2)cc1)NC[C@H](O)COc1cccc2[nH]ccc12 [Compound 6, (2S)-1-{[1,1-dimethyl-2-(4-{[5-(morpholin-4-ylcarbonyl)pyridin-2-yl]oxy}phenyl)ethyl]amino}-3-(1H-indol-4-yloxy)propan-2-ol] | 3.9% | 3.8% | – | – | – | – | – | – | –
7 | CC(C)(Cc1ccc(Oc2ccc(S(C)(=O)=O)cc2S(C)(=O)=O)cc1)NC[C@H](O)COc1cccc2[nH]c(C(N)=O)cc12 [Compound 7, 4-({(2S)-3-[(2-{4-[2,4-bis(methylsulfonyl)phenoxy]phenyl}-1,1-dimethylethyl)amino]-2-hydroxypropyl}oxy)-1H-indole-2-carboxamide] | 2% | 1.2% | – | – | – | – | – | – | –
8 | CC(C)(Cc1ccc(Oc2ncccc2C(N)=O)cc1)NC[C@H](O)COc1cccc2[nH]ncc12 [Compound 9, 2-[4-(2-{[(2S)-2-hydroxy-3-(1H-indazol-4-yloxy)propyl]amino}-2-methylpropyl)phenoxy]pyridine-3-carboxamide] | 8.9% | 5% | 9.3% | 4.8% | 2.1* % | 6.7% | 7.9% | 17.8% | F/G ratio (feed:gain efficiency) versus negative control group ([2]; 3.5 ppm in feed): significantly lower; G/F ratio (gain:feed efficiency) versus negative control group ([2]; 3.5 ppm in feed): significantly higher; hot bone-in leg weight versus negative control group ([2]; 3.5 ppm in feed): significantly higher; hot breast muscle weight versus negative control group ([2]; 3.5 ppm in feed): significantly higher; hot carcass weight versus negative control group ([2]; 3.5 ppm in feed): significantly higher; ADFI versus negative control group ([2]; 7 ppm in feed): significantly higher; ADG versus negative control group ([2]; 7 ppm in feed): significantly higher; F/G ratio (feed:gain efficiency) versus negative control group ([2]; 7 ppm in feed): significantly lower; G/F ratio (gain:feed efficiency) versus negative control group ([2]; 7 ppm in feed): significantly higher; hot bone-in leg weight versus negative control group ([2]; 7 ppm in feed): significantly higher; hot breast muscle weight versus negative control group ([2]; 7 ppm in feed): significantly higher; hot carcass weight versus negative control group ([2]; 7 ppm in feed): significantly higher; fat pad weight (in words) ([1]; 15 ppm in feed): reduce fat pad weight; feed intake (in words) ([1]; 15 ppm in feed): significant increase in feed intake; gain versus untreated control (in words) ([1]; 15 ppm in feed): significantly greater than untreated control; significance of the fat pad weight difference ([1]; 15 ppm in feed): significant; improvement versus negative control and positive control (in words) ([1]; 15 ppm in feed): significantly better improvement than both the negative control and the positive control
